For assay [1], the target named is GST-tagged KRAS-G12D (2-169) (Homo sapiens, UniProt P01116, G12D). Description: Nucleotide exchange assay (NEA), SOS-mediated, HTRF, KRAS G12D. The class given is biochemical. The conditions noted are these: Table 4; IC50 extracted at 30 min; 20 nM SOScat; read-out: NEA G12D IC50. Put shortly:
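Compound preincubated 1 h at RT with 0.25 nM GST-KRAS-G12D (2-169) and anti-GST Tb donor, then 20 nM SOS1cat (564-1049) and 150 nM GTP-DY-647P1 added; pH 7.3 HEPES buffer with MgCl2 and DTT. HTRF monitored at RT; % inhibition versus DMSO and no-SOS blank, 4-parameter IC50 taken at 30 min.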

Assay [2] addresses GST-tagged KRAS-G12V (2-169) (Homo sapiens, UniProt P01116, G12V). Briefly: Nucleotide exchange assay (NEA), SOS-mediated, HTRF, KRAS G12V. It is filed as biochemical. The conditions noted are these: Table 4; IC50 extracted at 90 min; 80 nM SOS. Put shortly: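 GST-KRAS-G12V (2-169), 0.25 nM, pre-incubated 1 h at RT with compound, then SOS1cat (564-1049) 80 nM and GTP-DY-647P1 150 nM added in HEPES pH 7.3 buffer with MgCl2 and DTT. HTRF via anti-GST Tb cryptate read over 90 min; IC50 from 4-parameter fit at 90 min, blanked to no-SOS reactions.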
(In general: Time-resolved FRET reads energy transfer from a long-lived donor to a nearby acceptor.)

The source of these data is patent US12421254B2, “KRAS modulators and uses thereof” (Quanta Therapeutics, Inc., priority 2023, dated 2025).

The IC50 is the concentration needed to halve the response being measured.

Sequence of GST-tagged KRAS-G12D (2-169) (P01116 2-169 isoform P01116-2 G12D): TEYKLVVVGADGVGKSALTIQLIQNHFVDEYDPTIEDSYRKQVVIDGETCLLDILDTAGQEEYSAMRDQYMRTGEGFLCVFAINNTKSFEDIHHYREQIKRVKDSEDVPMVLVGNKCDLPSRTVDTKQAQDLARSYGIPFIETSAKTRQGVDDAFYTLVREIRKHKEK
Sequence of GST-tagged KRAS-G12V (2-169) (P01116 2-169 isoform P01116-2 G12V): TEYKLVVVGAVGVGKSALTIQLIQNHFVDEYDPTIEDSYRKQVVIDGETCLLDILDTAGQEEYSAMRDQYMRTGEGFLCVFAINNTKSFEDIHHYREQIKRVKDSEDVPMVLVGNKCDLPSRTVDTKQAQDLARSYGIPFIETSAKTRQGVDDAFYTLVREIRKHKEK

In the case of `CCN(c1nc(OC[C@@]23CCCN2C[C@H](F)C3)nc(N2CC3(C2)c2c(sc(N)c2C#N)CN3CC#N)n1)[C@H](C)c1cccnc1N` [Compound 228, 2-amino-1′-[4-[[(1R)-1-(2-amino-3-pyridyl)ethyl]-ethyl-amino]-6-[[(2R,8S)-2-fluoro-1,2,3,5,6,7-hexahydropyrrolizin-8-yl]methoxy]-1,3,5-triazin-2-yl]-5-(cyanomethyl)spiro[6H-thieno[2,3-c]pyrrole-4,3′-azetidine]-3-carbonitrile], the IC50 in assay [1] was 1 to 20 µM; in assay [2], 0.1 to 1 µM.
In the same order, the values of `C[C@H](c1ccc(P(C)(C)=O)cc1)N(C)c1nc(OC[C@@]23CCCN2C[C@H](F)C3)nc(N2CC3(C2)SCc2sc(N)c(C#N)c23)n1` [Compound 229, 2′-amino-1-(4-(((R)-1-(4-(dimethylphosphoryl)phenyl)ethyl)(methyl)amino)-6-(((2R,7aS)-2-fluorotetrahydro-1H-pyrrolizin-7a(5H)-yl)methoxy)-1,3,5-triazin-2-yl)-6′H-spiro[azetidine-3,4′-thieno[3,4-b]thiophene]-3′-carbonitrile] are 1 to 20 µM and 1 to 20 µM.
Turning to `Cc1ccc(C(C)N(C)c2nc(OC[C@@]34CCCN3C[C@H](F)C4)nc(N3CC4(C3)SCc3sc(N)c(C#N)c34)n2)c(N)n1` (stereo partly drawn) [Compound 230, 2′-amino-1-(4-((1-(2-amino-6-methylpyridin-3-yl)ethyl)(methyl)amino)-6-(((2R,7aS)-2-fluorotetrahydro-1H-pyrrolizin-7a(5H)-yl)methoxy)-1,3,5-triazin-2-yl)-6′H-spiro[azetidine-3,4′-thieno[3,4-b]thiophene]-3′-carbonitrile], the IC50 in assay [1] and in assay [2] was 1 to 20 µM throughout.
Regarding `CC(c1ccc(P(C)(C)=O)cc1N)N(C)c1nc(OC[C@@]23CCCN2C[C@H](F)C3)nc(N2CC3(C2)SCc2sc(N)c(C#N)c23)n1` (stereo partly drawn) [Compound 231, 2′-amino-1-(4-((1-(2-amino-4-(dimethylphosphoryl)phenyl)ethyl)(methyl)amino)-6-(((2R,7aS)-2-fluorotetrahydro-1H-pyrrolizin-7a(5H)-yl)methoxy)-1,3,5-triazin-2-yl)-6′H-spiro[azetidine-3,4′-thieno[3,4-b]thiophene]-3′-carbonitrile], the IC50 in assay [1] and in assay [2] was no less than 20 µM each time.
In the case of `C[C@H](c1ccc(P(C)(C)=O)nc1N)N(C)c1nc(OC[C@@]23CCCN2C[C@H](F)C3)nc(N2CC3(C2)SCc2sc(N)c(C#N)c23)n1` [Compound 232, 2-amino-1′-[4-[1-(2-amino-6-dimethylphosphoryl-3-pyridyl)ethyl-methyl-amino]-6-[[(2R,8S)-2-fluoro-1,2,3,5,6,7-hexahydropyrrolizin-8-yl]methoxy]-1,3,5-triazin-2-yl]spiro[6H-thieno[3,4-b]thiophene-4,3′-azetidine]-3-carbonitrile], the results for the IC50 in assay [1] and in assay [2] were 1 to 20 µM and 0.1 to 1 µM, respectively.
Turning to `COc1ccc(C(C)N(C)c2nc(OC[C@@]34CCCN3C[C@H](F)C4)nc(N3CC4(C3)SCc3sc(N)c(C#N)c34)n2)c(N)n1` (stereo partly drawn) [Compound 233, 2′-amino-1-(4-((1-(2-amino-6-methoxypyridin-3-yl)ethyl)(methyl)amino)-6-(((2R,7aS)-2-fluorotetrahydro-1H-pyrrolizin-7a(5H)-yl)methoxy)-1,3,5-triazin-2-yl)-6′H-spiro[azetidine-3,4′-thieno[3,4-b]thiophene]-3′-carbonitrile], the IC50 in assay [1] fell in the range of 1 to 20 µM; in assay [2], 0.1 to 1 µM.
As for `CCN(c1nc(OC[C@@]23CCCN2C[C@H](F)C3)nc(N2CC3(C2)SCc2sc(N)c(C#N)c23)n1)C1(C(N)=O)CC1` [Compound 234, 1-[[4-(2-amino-3-cyano-spiro[6H-thieno[3,4-b]thiophene-4,3′-azetidine]-1′-yl)-6-[[(2R,8S)-2-fluoro-1,2,3,5,6,7-hexahydropyrrolizin-8-yl]methoxy]-1,3,5-triazin-2-yl]-ethyl-amino]cyclopropanecarboxamide], the IC50 in assay [1] fell in the range of 0.1 to 1 µM; in assay [2], 0.01 to 0.1 µM.
Regarding `CN(c1nc(OC[C@@]23CCCN2C[C@H](F)C3)nc(N2CC3(C2)SCc2sc(N)c(C#N)c23)n1)[C@H]1[C@H]2CN[C@@H]1C2` [Compound 257, 2-amino-1′-[4-[[(1R,4R,5S)-2-azabicyclo[2.1.1]hexan-5-yl]-methyl-amino]-6-[[(2R,8S)-2-fluoro-1,2,3,5,6,7-hexahydropyrrolizin-8-yl]methoxy]-1,3,5-triazin-2-yl]spiro[6H-thieno[3,4-b]thiophene-4,3′-azetidine]-3-carbonitrile], the figures for the IC50 in assay [1] and in assay [2] were less than 0.01 µM and 0.01 to 0.1 µM, respectively.
On to `CC(=O)N1CCC(N(C)c2nc(OC[C@@]34CCCN3C[C@H](F)C4)nc(N3CC4(C3)SCc3sc(N)c(C#N)c34)n2)C1C` (stereo partly drawn) [Compound 260, 1′-[4-[(1-acetyl-2-methyl-pyrrolidin-3-yl)-methyl-amino]-6-[[(2R,8S)-2-fluoro-1,2,3,5,6,7-hexahydropyrrolizin-8-yl]methoxy]-1,3,5-triazin-2-yl]-2-amino-spiro[6H-thieno[3,4-b]thiophene-4,3′-azetidine]-3-carbonitrile], for which the IC50 in assay [1] is 0.1 to 1 µM; in assay [2] it was 0.01 to 0.1 µM.
Regarding `CC(O)CN(c1nc(OC[C@@]23CCCN2C[C@H](F)C3)nc(N2CC3(C2)SCc2sc(N)c(C#N)c23)n1)C1(C#N)CC1` (stereo partly drawn) [Compound 261, 2-amino-1′-[4-[(1-cyanocyclopropyl)-(2-hydroxypropyl)amino]-6-[[(2R,8S)-2-fluoro-1,2,3,5,6,7-hexahydropyrrolizin-8-yl]methoxy]-1,3,5-triazin-2-yl]spiro[6H-thieno[3,4-b]thiophene-4,3′-azetidine]-3-carbonitrile], the IC50 in assay [1] and in assay [2] was less than 0.01 µM in each case.
Take `N#Cc1c(N)sc2c1C1(CN(c3nc(OC[C@@]45CCCN4C[C@H](F)C5)nc(N(CC4(O)CC4)C4(C#N)CC4)n3)C1)SC2` [Compound 263, 2-amino-1′-[4-[(1-cyanocyclopropyl)-[(1-hydroxycyclopropyl)methyl]amino]-6-[[(2R,8S)-2-fluoro-1,2,3,5,6,7-hexahydropyrrolizin-8-yl]methoxy]-1,3,5-triazin-2-yl]spiro[6H-thieno[3,4-b]thiophene-4,3′-azetidine]-3-carbonitrile]: the IC50 in assay [1] and in assay [2] was 0.01 to 0.1 µM throughout.
On to `N#Cc1c(N)sc2c1C1(CN(c3nc(OC[C@@]45CCCN4C[C@H](F)C5)nc(N4C5COCC4C5)n3)C1)SC2` [Compound 265, 2-amino-1′-[4-[[(2R,8S)-2-fluoro-1,2,3,5,6,7-hexahydropyrrolizin-8-yl]methoxy]-6-(3-oxa-6-azabicyclo[3.1.1]heptan-6-yl)-1,3,5-triazin-2-yl]spiro[6H-thieno[3,4-b]thiophene-4,3′-azetidine]-3-carbonitrile], for which the 50% inhibitory concentration (IC50) in assay [1] was in the range of 0.1 to 1 µM; in assay [2], 0.01 to 0.1 µM.
As to `N#Cc1c(N)sc2c1C1(CN(c3nc(OC[C@@]45CCCN4C[C@H](F)C5)nc(N(CC(N)=O)C4(C#N)CC4)n3)C1)SC2` [Compound 266, 2-[[4-(2-amino-3-cyano-spiro[6H-thieno[3,4-b]thiophene-4,3′-azetidine]-1′-yl)-6-[[(2R,8S)-2-fluoro-1,2,3,5,6,7-hexahydropyrrolizin-8-yl]methoxy]-1,3,5-triazin-2-yl]-(1-cyanocyclopropyl)amino]acetamide], the IC50 in assay [1] and in assay [2] was less than 0.01 µM throughout.
